This passage reports relative cell viability results from PMC11013998, “Preparation of Peptoid Antifreeze Agents and Their Structure–Property Relationship” (Polymers, 2024).

The series deals with Mouse fibroblasts (L929). The series is described as follows: Cytotoxicity test, Cell Counting Kit-8 (CCK8). As to conditions: L929 cells, 10 mg/mL in culture medium, 24 h, CCK-8, OD at 450 nm; non-cytotoxic if higher than 75%; tested at least three times. The format is cell-based. The method, then:
Cytotoxicity testing is a crucial strategy used to test the safety of biological materials. This experiment employed a low-speed centrifuge (SC-3610, Anhui Zhongke Zhongjia scientific Instrument Co., Ltd., Hefei, China), a cell incubator (CCL-170B-8, ESCO, Kuala Lumpur, Singapore) and a multifunctional microplate detector (Synergy H1, Bio-Tek, Winooski, VT, USA). In this test, the cytotoxicity of peptoid oligomers was detected using Cell Counting Kit-8 (CCK8, Finn Biological Co., Ltd., Wuhan, China). Mouse fibroblasts (L929) were cultured and subcultured to ensure that they met the experimental requirements. The old culture medium was removed from the cell dish, and 1 mL trypsin was added to digest the cells. A total of 2 mL of the new culture medium was added to the cell culture dish, and the cells were centrifuged to the bottom of the centrifuge tube. The culture medium was removed. An appropriate amount of new culture medium was added, and the centrifuge tube was shaken gently to disperse the cells evenly. […] Finally, the Optical Density (OD) at 450 nm was measured using a BioTek multifunctional microplate detector. The relative survival rate (σ) could be calculated using the following formula:(1) σ=OD1−OD0/OD2−OD0×100% where OD1 was the average OD of the experimental group, OD2 was the average OD of the negative control group, and OD0 was the average OD of the blank control group. […]
(In general: Formazan colour is commonly taken as a measure of viable cells.)

On to `C[S+](C)[O-]` [DMSO, dimethyl sulfoxide], for which the relative cell viability worked out at 61.9%.
